According to paper PMC10765884, “MC180295 is a highly potent and selective CDK9 inhibitor with preclinical in vitro and in vivo efficacy in cancer” (Clinical Epigenetics, 2024):
pIC50: −log10 of the molar value.

Assays:
[1] = molecular target: T1, CDK3/cyclin E2 (Homo sapiens, UniProt Q00526); test: CDK enzymatic assay; type: biochemical; conditions: Fig. 1A
T1 construct: purchased Reaction Biology Corp
Protocol: CDK enzymatic assays were performed by Reaction Biology Corp. (Malvern, PA), using 10 µM ATP for determining MC180295 IC50 values for each CDK family member for which assays were available. Kinase enzymatic assays were also performed by Nanosyn (Santa Clara, CA), using microfluidic technology and MC180295 IC50 curves against 10 CDKs. Selectivity against CDK9 was confirmed for the enantiomers at Reaction Biology Corp. (Malvern, PA).

[2] = tested on: 46 cell lines representing 6 different malignancies; test: Growth inhibition in a panel of cancer cell lines; type: cell-based; conditions: 6 malignancies, read-out: median IC50
Protocol: (§1) The live-cell assay for GFP reactivation in YB5 cells was done as previously described. Cells were treated with a single dose of drug 24 h after seeding at low density, and GFP fluorescence measured in a Millipore Guava flow cytometer (EMD, Millipore) instrument, or by imaging in a Cytation instrument (Agilent). Cancer cell lines (listed in Additional file 1: Fig. S1A) were obtained from ATCC or the Temple/Fox Chase Cellular Repository and cultured in the recommended medium. To measure growth inhibition, cells were seeded in 96-well plates at 40% confluency. Fresh medium was changed the next day and drugs were added directly. Drug-free fresh medium was changed on the fourth day. The cells were collected on day 5 by trypsin, suspended in medium, mixed with trypan blue (Thermo Fisher Scientific) (1:1 ratio), and counted using a LUNA II automated cell counter. Each sample was counted at least three times, and average numbers used for the analysis. Each treatment condition was performed in biological triplicates.

[3] = tested on: WM3918; test: Growth inhibition (cell counting, day 5); type: cell-based; conditions: Melanoma
Protocol: as §1

[4] = tested on: MOLM-13; test: Growth inhibition (cell counting, day 5); type: cell-based; conditions: Homo sapiens, Leukemia
Protocol: as §1

[5] = tested on: KG-1a; test: Growth inhibition (cell counting, day 5); type: cell-based; conditions: Homo sapiens, Leukemia
Protocol: as §1

[6] = tested on: HTB126; test: Growth inhibition (cell counting, day 5); type: cell-based; conditions: Breast
Protocol: as §1

[7] = tested on: VACCC257; test: Growth inhibition (cell counting, day 5); type: cell-based; conditions: Melanoma
Protocol: as §1

[8] = tested on: BT549; test: Growth inhibition (cell counting, day 5); type: cell-based; conditions: Homo sapiens, BT-549; Breast
Protocol: as §1

[9] = tested on: LnCap; test: Growth inhibition (cell counting, day 5); type: cell-based; conditions: Homo sapiens, Prostate
Protocol: as §1

[10] = tested on: UC6; test: Growth inhibition (cell counting, day 5); type: cell-based; conditions: Bladder
Protocol: as §1

[11] = tested on: KG-1; test: Growth inhibition (cell counting, day 5); type: cell-based; conditions: Homo sapiens, Leukemia
Protocol: as §1

[12] = tested on: DU145; test: Growth inhibition (cell counting, day 5); type: cell-based; conditions: Homo sapiens, DU-145; Prostate
Protocol: as §1

[13] = tested on: M14; test: Growth inhibition (cell counting, day 5); type: cell-based; conditions: Homo sapiens, Melanoma
Protocol: as §1

[14] = tested on: BT474; test: Growth inhibition (cell counting, day 5); type: cell-based; conditions: Homo sapiens, BT-474; Breast
Protocol: as §1

[15] = tested on: KM12; test: Growth inhibition (cell counting, day 5); type: cell-based; conditions: Homo sapiens, Colon
Protocol: as §1

[16] = tested on: 451LU; test: Growth inhibition (cell counting, day 5); type: cell-based; conditions: Melanoma
Protocol: as §1

[17] = tested on: WM88; test: Growth inhibition (cell counting, day 5); type: cell-based; conditions: Melanoma
Protocol: as §1

[18] = tested on: PC3; test: Growth inhibition (cell counting, day 5); type: cell-based; conditions: Homo sapiens, PC-3; Prostate
Protocol: as §1

[19] = tested on: HS936T; test: Growth inhibition (cell counting, day 5); type: cell-based; conditions: Melanoma
Protocol: as §1

[20] = tested on: UC3; test: Growth inhibition (cell counting, day 5); type: cell-based; conditions: Bladder
Protocol: as §1

[21] = tested on: K562; test: Growth inhibition (cell counting, day 5); type: cell-based; conditions: Homo sapiens, Leukemia
Protocol: as §1

[22] = tested on: UC16; test: Growth inhibition (cell counting, day 5); type: cell-based; conditions: Bladder
Protocol: as §1

[23] = tested on: MV4-11; test: Growth inhibition (cell counting, day 5); type: cell-based; conditions: Homo sapiens, Leukemia
Protocol: as §1

[24] = tested on: SW48; test: Growth inhibition (cell counting, day 5); type: cell-based; conditions: Homo sapiens, Colon
Protocol: as §1

[25] = tested on: Raji; test: Growth inhibition (cell counting, day 5); type: cell-based; conditions: Homo sapiens, Leukemia
Protocol: as §1

[26] = tested on: MALME-3M; test: Growth inhibition (cell counting, day 5); type: cell-based; conditions: Homo sapiens, Melanoma
Protocol: as §1

[27] = tested on: HCC2218; test: Growth inhibition (cell counting, day 5); type: cell-based; conditions: Homo sapiens, Breast
Protocol: as §1

[28] = tested on: Jurkat; test: Growth inhibition (cell counting, day 5); type: cell-based; conditions: Homo sapiens, Leukemia
Protocol: as §1

[29] = tested on: CT26.CL25; test: Growth inhibition (cell counting, day 5); type: cell-based; conditions: Mus musculus; Colon
Protocol: as §1

[30] = tested on: J-Tag; test: Growth inhibition (cell counting, day 5); type: cell-based; conditions: Leukemia
Protocol: as §1

[31] = tested on: RKO; test: Growth inhibition (cell counting, day 5); type: cell-based; conditions: Homo sapiens, Colon
Protocol: as §1

[32] = tested on: A2058; test: Growth inhibition (cell counting, day 5); type: cell-based; conditions: Homo sapiens, Melanoma
Protocol: as §1

[33] = tested on: sk-mel28; test: Growth inhibition (cell counting, day 5); type: cell-based; conditions: Homo sapiens, SK-MEL-28; Melanoma
Protocol: as §1

[34] = tested on: OCI-AML3; test: Growth inhibition (cell counting, day 5); type: cell-based; conditions: Homo sapiens, OCI-AML-3; Leukemia
Protocol: as §1

[35] = tested on: Cama-1; test: Growth inhibition (cell counting, day 5); type: cell-based; conditions: Homo sapiens, Breast
Protocol: as §1

[36] = tested on: WM983B; test: Growth inhibition (cell counting, day 5); type: cell-based; conditions: Melanoma
Protocol: as §1

[37] = tested on: LOVO; test: Growth inhibition (cell counting, day 5); type: cell-based; conditions: Homo sapiens, Colon
Protocol: as §1

[38] = tested on: CaCO2; test: Growth inhibition (cell counting, day 5); type: cell-based; conditions: Homo sapiens, Caco-2; Colon
Protocol: as §1

[39] = tested on: HCCC1937; test: Growth inhibition (cell counting, day 5); type: cell-based; conditions: Breast
Protocol: as §1

[40] = tested on: HT29; test: Growth inhibition (cell counting, day 5); type: cell-based; conditions: Homo sapiens, HT-29; Colon
Protocol: as §1

[41] = tested on: WM3912; test: Growth inhibition (cell counting, day 5); type: cell-based; conditions: Melanoma
Protocol: as §1

[42] = tested on: HL-60; test: Growth inhibition (cell counting, day 5); type: cell-based; conditions: Homo sapiens, Leukemia
Protocol: as §1

[43] = tested on: HCT116; test: Growth inhibition (cell counting, day 5); type: cell-based; conditions: Homo sapiens, HCT-116; Colon
Protocol: as §1

[44] = tested on: SW480; test: Growth inhibition (cell counting, day 5); type: cell-based; conditions: Homo sapiens, Colon
Protocol: as §1

T1 sequence (Q00526 whole entry): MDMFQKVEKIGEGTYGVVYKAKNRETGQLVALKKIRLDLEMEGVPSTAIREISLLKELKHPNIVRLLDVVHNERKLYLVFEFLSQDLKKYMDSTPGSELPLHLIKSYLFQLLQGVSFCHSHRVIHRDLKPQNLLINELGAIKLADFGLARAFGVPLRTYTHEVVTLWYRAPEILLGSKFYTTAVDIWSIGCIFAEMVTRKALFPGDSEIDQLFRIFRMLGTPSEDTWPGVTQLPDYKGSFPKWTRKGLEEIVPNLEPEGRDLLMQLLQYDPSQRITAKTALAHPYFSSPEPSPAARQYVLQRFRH
T1 sequence (O96020 whole entry partner): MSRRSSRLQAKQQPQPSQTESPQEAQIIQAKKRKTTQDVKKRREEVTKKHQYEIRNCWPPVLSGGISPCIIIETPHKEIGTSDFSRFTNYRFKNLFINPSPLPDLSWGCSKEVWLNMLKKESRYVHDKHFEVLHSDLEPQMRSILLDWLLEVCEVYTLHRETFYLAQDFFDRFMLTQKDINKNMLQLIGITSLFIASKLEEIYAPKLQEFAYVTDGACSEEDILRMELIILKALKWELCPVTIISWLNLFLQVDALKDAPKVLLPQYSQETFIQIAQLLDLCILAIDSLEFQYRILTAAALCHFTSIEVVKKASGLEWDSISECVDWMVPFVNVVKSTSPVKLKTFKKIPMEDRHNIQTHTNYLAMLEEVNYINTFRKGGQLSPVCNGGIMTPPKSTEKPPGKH

Compound `Nc1nc(N[C@H]2C[C@@H]3CC[C@H]2C3)sc1C(=O)c1ccccc1[N+](=O)[O-]` (relative stereo) [MC180295] has a pIC50 [1] of 6.40, a pIC50 [2] of 6.77 and a pIC50 [3] of 6.82. It also gave a pIC50 [4] of 7.36, a pIC50 [5] of 7.08 and a pIC50 [6] of 7.04. It also gave a pIC50 [7] of 6.46, a pIC50 [8] of 6.54 and a pIC50 [9] of 6.96. The pIC50 [10] was 6.84, the pIC50 [11] was 6.83 and the pIC50 [12] was 6.68. The pIC50 [13] was 6.52, the pIC50 [14] was 7.10 and the pIC50 [15] was 6.99. The pIC50 [16] was 6.96, the pIC50 [17] was 6.99 and the pIC50 [18] was 6.67. It also gave a pIC50 [19] of 6.41, a pIC50 [20] of 7.00 and a pIC50 [21] of 6.30. The pIC50 [22] was 7.11, the pIC50 [23] was 7.55 and the pIC50 [24] was 7.01. For the same compound, the pIC50 [25] was 6.86, the pIC50 [26] was 6.46 and the pIC50 [27] was 7.15. It also gave a pIC50 [28] of 6.85, a pIC50 [29] of 6.78 and a pIC50 [30] of 6.95. The pIC50 [31] was 7.11, the pIC50 [32] was 6.70 and the pIC50 [33] was 6.38. For the same compound, the pIC50 [34] was 7.02, the pIC50 [35] was 6.20 and the pIC50 [36] was 6.60. The pIC50 [37] was 6.70, the pIC50 [38] was 6.97 and the pIC50 [39] was 6.91. The pIC50 [40] was 7.12, the pIC50 [41] was 6.92 and the pIC50 [42] was 6.92. The pIC50 [43] was 7.04 and the pIC50 [44] was 6.81.
